According to patent US7465814B2, “Sulfonate compound and fluorescent probe using the same” (priority 2003, dated 2008):

Experiments:
[1] = Fluorescent response to XO-HPX system, 96-well microplate (Table 1); format: biochemical; details: relative fluorescence intensity, blank = 10, probe 21.3 μM, 10 minutes
Procedure: (§1) Moreover, in other conditions than those of the above-described tests, reactivity of all of the compounds 1a to 1d with H2O2, other various kinds of nucleophilic agents, reducing agents and the like also was tested, respectively. More specifically, fluorescent responses of 1a to 1d with respect to a XO-HPX system, a XO-HPX-SOD system, H2O2, ascorbic acid, 1,4-hydroquinone, propylamine, diethylamine, glucose, esterase, a cytochrome P450 reductase+NADPH system, and a diaphorase+NADH system were measured, respectively. Operational processes thereof will be described below. Firstly, 1a to 1d and the above-described reagents were dissolved in HEPES of 10 mM having a pH of 7.4 so as to prepare solutions, respectively. Next, a 96 wellmicroplate was provided, where any of the solutions of 1a to 1d (25 μM, 170 μL) was poured into each of the wells, and furthermore, 30 μL of a blank solution or 30 μL of the solution of the reagent to be reacted therewith was added thereto. Final concentrations of the solutions in the wells were adjusted so that concentrations of the solutions of 1a to 1d respectively could be 21.3 μM, that of XO could be 13.1 mU/mL, those of HPX, H2O2, ascorbic acid, 1,4-hydroquinone, propylamine, diethylamine, glucose, NADPH and NADH respectively could be 50 μM, that of cytochrome P450 reductase could be 68 mU/mL, that of diaphorase could be 65 mU/mL, and that of esterase could be 0.5 U/mL, respectively. Then, after they reacted in the wells at 37° C. for 10 minutes, fluorescent responses were measured respectively. Fluorescence intensity measurement was conducted by using an ETC-272 Peltier thermostatted single cell holder (trade name) manufactured by JASCO Corporation or a SpectraMax GeminiEM fluorescence plate reader (trade name) manufactured by Molecular Devices Corporation provided with a FP-750 spectrofluorometer (trade name) manufactured by JASCO Corporation, and by setting excitation wavelengths and emission wavelengths so that those of 1a, 1b and 1c respectively could be 485 nm and 515 nm, and those of 1d respectively could be 511 nm and 540 nm.

[2] = Quantitativity of fluorescence response in the HPX/XO system, 96-well microplate assay; format: biochemical
Procedure: According to a 96 wellmicroplate assay, sensitivity and quantitativity of the fluorescence response of the probe (the compound 1d) in the HPX/XO system were tested. Specifically, a DMSO solution of 1d (10 mM) was diluted by 400-fold with HEPES (pH 7.4, 10 mM) so as to prepare a probe solution, and this probe solution (150 μL) was mixed with a HEPES solution of HPX (10 μL) and a HEPES solution of XO (0.26 U/mL, 10 μL), and was allowed to stand still at 37° C. for 10 minutes, and thereafter, a fluorescence intensity was measured. […] A correlation coefficient of this linear calibration curve was 1.000, and an inclination thereof was 0.58 au/pmol.
More specifically, an assay condition was the same as that in the above-described measurement, except providing a DMSO solution of 1d with a concentration of 5 mM, preparing a probe solution by diluting this DMSO solution by 400-fold with HEPES (pH 7.4, 10 mM), and using 180 μL of the probe solution. Fluorescence intensity measurement was conducted by using an ETC-272 Peltier thermostatted single cell holder (trade name) manufactured by JASCO Corporation or a SpectraMax GeminiEM fluorescence plate reader (trade name) manufactured by Molecular Devices Corporation provided with a FP-750 spectrofluorometer (trade name) manufactured by JASCO Corporation. As a result, a detection limit value of the concentration of HPX was 1.0 pmol (RSD, n=8; 2.9%), and a favorable linear calibration curve with a correlation coefficient of 0.9993 and an inclination of 0.80 au/pmol was obtained, with the concentration of HPX ranging from the detection limit value to 2.0 nmol. The inclination of this linear calibration curve is different from that of the above-described measurement, because of using the arbitrary units for the fluorescence intensities and the different measurement apparatuses.

[3] = Tracking fluorescence on reaction with H2O2 (FIG. 1d); format: biochemical; details: H2O2 40 μM only
From the text: This figure is a graph showing results that are obtained by tracking fluorescence by allowing the compound 1d to react with H2O2 or superoxide produced enzymatically, a horizontal axis thereof represents a reaction time (second), and a vertical axis thereof represents a fluorescence intensity (au). In the figure, (a) represents a result obtained by a reaction in the presence of HPX and XO, (b) represents a result obtained by a reaction in the presence of HPX, XO and SOD, (c) represents a result obtained by a reaction under an anaerobic condition in the presence of HPX, XO and SOD, and (d) represents a result obtained by a reaction with only H2O2. The test results shown in FIG. 1 will be described below in further detail.

Voltammetry measurement = format: physicochemical; details: CH3CN—H2O (3:1) containing Et4NClO4
[4] = Fluorescent response to 1,4-hydroquinone (Table 1); format: biochemical; details: relative fluorescence intensity, blank = 10; probe 21.3 μM, 1,4-hydroquinone 50 μM, 37° C., 10 minutes
Procedure: as §1

[5] = Fluorescent response to H2O2 (Table 1); format: biochemical; details: relative fluorescence intensity, blank = 10; probe 21.3 μM, H2O2 50 μM, 37° C., 10 minutes
Procedure: as §1

[6] = Reactivity with superoxide and glutathione (FIG. 4); format: biochemical; details: same conditions as 1-3 Superoxide-selectivity (2)
Procedure: as §1
The reactivity of each of the compounds 1d, 5a, 6a, 7 and 8a with respect to superoxide and glutathione (GSH) that is a kind of thiol was tested under the same conditions as those of [1-3. Superoxide-selectivity (2)] in Example 1. […] A vertical axis thereof denotes a fluorescence intensity, which is represented in % of control.

esterase = experiment: Fluorescent response to esterase (Table 1); format: biochemical; details: relative fluorescence intensity, blank = 10; probe 21.3 μM, esterase 0.5 U/mL, 37° C., 10 minutes
Procedure: as §1

SMILES: O=C1OC2(c3ccccc31)c1cc(F)c(OS(=O)(=O)c3ccc([N+](=O)[O-])cc3[N+](=O)[O-])c(F)c1Oc1c2cc(F)c(OS(=O)(=O)c2ccc([N+](=O)[O-])cc2[N+](=O)[O-])c1F [Compound 1d]
- fluorescent response, XO—HPX ([1]; XO 13.1 mU/mL, HPX 50 μM, HEPES pH 7.4, 37° C.): 554
- fluorescent response, XO—HPX—SOD ([1]; XO-HPX with SOD, 37° C.): 60
- detection limit value of HPX ([2]; 10 mM DMSO solution diluted 400-fold, 150 μL probe solution, 37° C., 10 minutes): 5.0 pmol
- inclination of linear calibration curve ([2]; 10 mM DMSO solution diluted 400-fold, 150 μL, HPX from detection limit to 10.0 nmol): 0.58 au/pmol
- detection limit value of HPX ([2]; different apparatus, 5 mM DMSO solution diluted 400-fold, 180 μL probe solution): 1.0 pmol
- inclination of linear calibration curve ([2]; different apparatus, 5 mM DMSO solution, 180 μL, HPX from detection limit to 2.0 nmol): 0.80 au/pmol
- increase of fluorescence intensity with H2O2, FIG. 1(d) [3]: small enough to be neglected
- cathode response (Voltammetry measurement): about −0.5 V vs SCE
- fluorescent response, 1,4-hydroquinone [4]: 11
- fluorescent response, H2O2 [5]: 11
- selectivity (specificity), superoxide versus glutathione, FIG. 4 [6]: excellent superoxide-selectivity
- fluorescent response, esterase (esterase): 15
